Reference: article PMC9917264, “Ca^2+-Triggered Coelenterazine-Binding Protein Renilla: Expected and Unexpected Features” (International Journal of Molecular Sciences, 2023)

Target: T1, coelenterazine-binding apoprotein (apoCBP) (Renilla muelleri, UniProt C9V488)
T1 construct: gene CBP1; recombinant apoprotein, single chain, 21 kDa
T1 sequence (C9V488 1-186): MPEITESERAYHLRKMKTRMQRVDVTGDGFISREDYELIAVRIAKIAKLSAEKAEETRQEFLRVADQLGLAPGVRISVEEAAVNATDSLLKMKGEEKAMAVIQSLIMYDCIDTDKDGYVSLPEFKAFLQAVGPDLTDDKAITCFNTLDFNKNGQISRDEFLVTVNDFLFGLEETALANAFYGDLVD
Experiment: absorption spectrum of the CBP complex
Conditions: Ca2+-free; noncovalent

## Oc1ccc(Cc2nc3c(Cc4ccccc4)nc(-c4ccc(O)cc4)cn3c2O)cc1 [coelenterazine]
  absorption spectrum of the CBP complex: FMZ-apoCBP and CBP spectra obtained under the same conditions are practically identical
